Source: US10231453B2, “5-substituted imidazole derivatives” (BAYER CROPSCIENCE AKTIENGESELLSCHAFT, priority 2015, dated 2019)

Experiments:
[1] = Measurement of LogP values by HPLC on reversed phase columns (EEC directive 79/831 Annex V.A8); format: physicochemical; conditions: method [a]: LC-UV, acidic range, 0.1% formic acid in water and acetonitrile as eluent; Table 1
Description: Measurement of Log P values was performed as outlined above.

Puccinia recondita = assay: In vivo preventive test on Puccinia recondita (brown rust on wheat), Examples C and R3; conditions: Puccinia recondita, 264 h; 500 ppm of active ingredient; wheat, preventive spray, evaluated 11 days after inoculation; read-out: efficacy
Uromyces appendiculatus = assay: In vivo preventive test on Uromyces appendiculatus (bean rust), Examples G and R7; conditions: 264 h, 500 ppm of active ingredient, bean, preventive spray, evaluated 11 days after inoculation, read-out: efficacy
Pyrenophora teres = assay: In vivo preventive test on Pyrenophora teres (net blotch on barley), Examples D, Q2 and R4; conditions: Pyrenophora teres, 336 h, 500 ppm of active ingredient, preventive spray, evaluated 14 days after inoculation, read-out: efficacy
Septoria tritici = assay: In vivo preventive test on Septoria tritici (leaf spot on wheat), Examples E, Q3 and R5; conditions: Zymoseptoria tritici, 576 h, 500 ppm of active ingredient; wheat, preventive spray, evaluated 24 days after inoculation; read-out: efficacy
Sphaerotheca fuliginea = assay: In vivo preventive test on Sphaerotheca fuliginea (powdery mildew on cucurbits), Examples F and R6; conditions: Podosphaera fuliginea, 360 h; 500 ppm of active ingredient; gherkin, preventive spray, evaluated 15 days after inoculation; read-out: efficacy

| SMILES | chromatographic logP [1] | pest or weed control at 500 ppm (Puccinia recondita) [%] | pest or weed control at 500 ppm (Uromyces appendiculatus) [%] | pest or weed control at 500 ppm (Pyrenophora teres) [%] | pest or weed control at 500 ppm (Septoria tritici) [%] | pest or weed control at 500 ppm (Sphaerotheca fuliginea) [%] |
| --- | --- | --- | --- | --- | --- | --- |
| Cc1cncn1CC(O)(Cc1cccnc1Cl)C1(Cl)CC1 (stereo not drawn) [Example I-10] | 1.22 | 80 to 89 | 90 to 100 | – | – | – |
| O=Cc1cncn1CC(O)(Cc1ccccc1Cl)C1(Cl)CC1 (stereo not drawn) [Example I-12] | – | 80 to 89 | 90 to 100 | 90 to 100 | 90 to 100 | 90 to 100 |
| N#Cc1cncn1CC(O)(C(F)c1ccccc1Cl)C1(Cl)CC1 (stereo not drawn) [Example I-24] | 2.82 | 80 to 89 | 90 to 100 | – | 90 to 100 | 90 to 100 |
| OC(Cn1cncc1Cl)(C(F)c1ccccc1F)C1(Cl)CC1 (stereo not drawn) [Example I-28] | 2.01 | 80 to 89 | 70 to 79 | – | 80 to 89 | 90 to 100 |
| COc1cncn1CC(O)(Cc1ccccc1F)C1(Cl)CC1 (stereo not drawn) [Example I-35] | 1.67 | – | – | – | 90 to 100 | – |
| OC(Cc1ccccc1F)(Cn1cncc1C1CC1)C1(Cl)CC1 (stereo not drawn) [Example I-37] | 1.86 | 80 to 89 | – | – | 90 to 100 | – |
| N#Cc1cncn1CC(O)(Cc1cc(Br)ncc1Br)C1(Cl)CC1 (stereo not drawn) [Example I-47] | 2.73 | 80 to 89 | 90 to 100 | – | – | 90 to 100 |
| N#Cc1cncn1CC(O)(Cc1ccncc1Cl)C1(Cl)CC1 (stereo not drawn) [Example I-57] | 1.88 | 90 to 100 | 90 to 100 | – | 90 to 100 | 90 to 100 |
| N#Cc1cncn1CC(O)(Cc1cc(Cl)cc(Cl)c1)C1(Cl)CC1 (stereo not drawn) [Example I-58] | 3.55 | 80 to 89 | 90 to 100 | – | 80 to 89 | 90 to 100 |
| OC(Cc1ccnc(Cl)c1Cl)(Cn1cncc1Cl)C1(Cl)CC1 (stereo not drawn) [Example I-67] | 2.08 | 80 to 89 | 90 to 100 | – | – | 90 to 100 |
| Cc1ccc(CC(O)(Cn2cncc2Cl)C2(Cl)CC2)c(C)c1 (stereo not drawn) [Example I-68] | 2.69 | 70 to 79 | 90 to 100 | – | – | – |
| OC(Cc1cc(Cl)nc(Cl)c1)(Cn1cncc1Cl)C1(Cl)CC1 (stereo not drawn) [Example I-74] | 2.23 | – | 90 to 100 | – | 90 to 100 | 90 to 100 |
| Nc1cncn1CC(O)(Cc1ccccc1Cl)C1(Cl)CC1 (stereo not drawn) [Example I-78] | 1.5 | – | – | – | 80 to 89 | 80 to 89 |
| N#Cc1cncn1CC(O)(Cc1cccc(Cl)c1F)C1(F)CC1 (stereo not drawn) [Example I-94] | 2.68 | – | – | – | – | – |
| N#Cc1cncn1CC(O)(Cc1ccc(F)cc1)C1(F)CC1 (stereo not drawn) [Example I-100] | 2.35 | – | – | – | – | – |
| CC1(C(O)(Cc2ccc(F)c(F)c2F)Cn2cncc2C#N)CC1 (stereo not drawn) [Example I-102] | 2.82 | – | – | – | – | – |
| N#Cc1cncn1CC(O)(Cc1ccc(F)c(F)c1F)C1CCC1 (stereo not drawn) [Example I-104] | 2.78 | 90 to 100 | 90 to 100 | – | 90 to 100 | 90 to 100 |
| CC(C)C(O)(Cc1ccc(F)c(F)c1F)Cn1cncc1C#N (stereo not drawn) [Example I-105] | 2.78 | 70 to 79 | – | – | 70 to 79 | 90 to 100 |
| N#Cc1cncn1CC(O)(Cc1ccc(F)c(F)c1F)CC1CC1 (stereo not drawn) [Example I-106] | 2.73 | 80 to 89 | 90 to 100 | – | 90 to 100 | 90 to 100 |
| NC(=O)c1cncn1CC(O)(Cc1ccc(Cl)cc1F)C1CC1 (stereo not drawn) [Example I-116] | 1.49 | – | – | – | 90 to 100 | 90 to 100 |
| N#Cc1cncn1CC(O)(Cc1ccc(Cl)cc1F)C1CCC1 (stereo not drawn) [Example I-117] | 3.31 | 90 to 100 | 90 to 100 | – | 90 to 100 | 90 to 100 |
| CCOC(Cc1ccc(Cl)cc1F)(Cn1cncc1Cl)C1(Cl)CC1 (stereo not drawn) [Example I-122] | 3.1 | 80 to 89 | 90 to 100 | – | 90 to 100 | 90 to 100 |
| C=CCOC(Cc1ccc(Cl)cc1F)(Cn1cncc1Cl)C1(Cl)CC1 (stereo not drawn) [Example I-123] | 3.31 | 80 to 89 | 80 to 89 | – | 90 to 100 | 90 to 100 |
| CCOC(=O)c1cncn1CC(O)(Cc1ccccc1F)C1(Cl)CC1 (stereo not drawn) [Example I-135] | 2.73 | – | – | – | – | – |
| N#Cc1cncn1CC(O)(Cc1ccccc1F)CC1CC1 (stereo not drawn) [Example I-141] | 2.45 | 90 to 100 | 90 to 100 | – | 90 to 100 | 90 to 100 |
| N#Cc1cncn1CC(O)(Cc1cccc(Cl)c1F)C1(Cl)CC1 (stereo not drawn) [Example I-145] | 3.02 | – | – | – | – | – |
| N#Cc1cncn1CC(O)(Cc1ccc(F)cc1)C1(Cl)CCC1 (stereo not drawn) [Example I-159] | 2.98 | – | – | – | – | – |
| N#Cc1cncn1CC(O)(Cc1ccc(F)cc1)C1CCC1 (stereo not drawn) [Example I-160] | 2.56 | – | – | – | – | – |
| N#Cc1cncn1CC(O)(Cc1ccc(F)cc1)C1CCCC1 (stereo not drawn) [Example I-161] | 2.82 | – | – | – | – | – |
